Patent publication US20250059191A1, “CRYSTALLINE FORMS OF DIAZABICYCLOOCTANE DERIVATIVE AND PRODUCTION PROCESS THEREOF” (MEIJI SEIKA PHARMA CO., LTD., priority 2013, published 2025)

How the values were obtained:
Format in all cases: physicochemical
[1] = Solubility in aqueous isopropanol solution
Excerpt: Crystalline forms I, II and III are distinguished by DSC, solubility in aqueous isopropanol, and lattice spacing in powder X-ray diffraction patterns. […]

[2] = XRD-DSC experiment on crystalline form III (crystal transformation by heating)
Experimental: (§1) Crystal transformation in the polymorphism of the compound represented by Formula (VII-1) obtained in the present invention are not observed in a stability test carried out at 40° C. in the solid state or in stirring the suspension in a hydrous solvent for a long time. When crystalline form III of the compound represented by Formula (VII-1) was subjected to an XRD-DSC experiment, heated to 160° C. at 60% RH, and then allowed to cool on standing to 63° C., the crystalline form changed to anhydrous crystalline form over about 145° C., and then returned to the crystalline form III below about 90° C. after cooling. On the basis of these findings, a crystalline form of a compound represented by Formula (VII-1), particularly the crystalline form III constitutes a stable form under ordinary conditions.
Crystal transformation by heating in polymorphism of crystalline form III of Example 7a was examined using XRD-DSC. Heating and cooling conditions were as follows: the temperature was elevated at a rate of 2° C./min from room temperature to 160° C. and then cooled to 63° C. under a constant relative humidity (RH) of 60%. DSC and XRD of the samples were successively measured. […]

[3] = Experiment on crystal transformation (powder X-ray diffraction after stirring suspension or storage); conditions: suspensions after seeding and after isopropanol addition, stirred at room temperature for one day and four days
Experimental: as §1
A small amount of a suspension of the crystals of Example 6a was taken and stirred at room temperature for one day. The precipitated crystals were collected and subjected to powder X-ray crystal diffraction.
In the step of Example 7a, a small amount was taken out of the suspension immediately after the seeding and of the suspension after the dropwise addition of isopropanol, and each of the taken-out portions was stirred with a stirring bar at room temperature for one day and four days. The precipitated crystals were collected and subjected to powder X-ray crystals diffraction.
Crystalline form IV of Examples 8a-c was taken and isopropanol/water (6/1) was added thereto and suspended and stirred at 25° C. or 40° C. for one week. Samples were taken after 12 hours, 24 hours (one day), 48 hours (two days), 72 hours (three days), 96 hours (four days) and 168 hours (one week), and subjected to powder X-ray crystal diffraction after through-flow drying.

[4] = Stability of crystalline form III in a packaging container; conditions: polyethylene bag/aluminium laminated bag
Experimental: (§2) Samples were dissolved in water, and these solutions were used as sample solutions. The sample solutions each in the amount of 5 μL were tested under the following conditions by JP16, Liquid Chromatography <2.01>to obtain the amount of each related substance (%) and the total amount of related substances (%), and the content.
(§3) • Column: Waters Atlantis dc18, 5 μm, 4.6×250 mm • Column temperature: a constant temperature of about 35° C. • Injected amount: 5 μL • Detector: an ultraviolet absorption photometer (wavelength: 210 nm) • Mobile phase A: 1.32 g of diammonium hydrogenphosphate was dissolved in 900 mL of water, and phosphoric acid was added to adjust the pH to 3.0. To this was then added water to make 1000 mL. • Mobile phase B: Acetonitrile for liquid chromatography • Gradient program: The mixing ratio of mobile phase A to mobile phase B was controlled as the following time program.
(§4) About 20 mg of the product was precisely measured and tested by JP16, Water Determination <2.48>Coulometric titration.
Crystalline form III was packaged under the following conditions and stability tests were conducted at each of the temperatures and humidity conditions under analysis conditions of Example 9a. The results are shown in Tables 10-12. • Packaging container • Inner bag: a low-density polyethylene·nylon tie band • Outer bag: an aluminium laminated bag·heat sealed

[5] = Stability test of amorphous form and crystalline forms I-IV, 40° C./75% RH, airtight container
Experimental: Crystalline form III of Example 7a were dissolved in water and subjected to lyophilisation to afford (2S,5R)-N-(2-aminoethoxy)-7-oxo-6-(sulfooxy)-1,6-diazabicyclo[3.2.1]octane-2-carboxamide (VII-1) in an amorphous form. The compounds in an amorphous form and crystalline forms I-IV of Examples 5-8 were each weighed in a screw bottle, and stability tests were conducted at each of the temperatures and humidity conditions. The methods of measurement of related substances, content measurement, and water content measurement were as follows.
as §2, §3, §4

[6] = 60° C., 4 weeks (text: 1 month)

In the case of NCCONC(=O)[C@@H]1CC[C@@H]2CN1C(=O)N2OS(=O)(=O)O [Crystalline form III, (2S,5R)-N-(2-aminoethoxy)-7-oxo-6-(sulfooxy)-1,6-diazabicyclo[3.2.1]octane-2-carboxamide], the “Solubility in an aqueous 60% isopropanol solution” value ([1]; 10° C.) is reported as 0.76%, the “Solubility in an aqueous 60% isopropanol solution” value ([1]; 20° C.) is reported as 0.80% and the “Temperature at which it returned to the crystalline form III after cooling” value ([2]; allowed to cool to 63° C. at 60% RH) is reported as “below 90 °C”. For the same compound, the “Temperature at which the crystalline form changed to anhydrous crystalline form” value ([2]; heated to 160° C. at 60% RH) was “over 145 °C”, the “Crystal transformation to a different crystal form” value [3] was “No crystal transformation to a different crystal form was observed” and the Content ([4]; 25° C./60% RH, 3 months) was 99.9%. The “Total amount of related substances” value ([4]; 25° C./60% RH, 3 months) was 0.07%, the Water content ([4]; 25° C./60% RH, 3 months) was 5.23% and the Content ([4]; 25° C./60% RH, at start) was 99.9%. The “Total amount of related substances” value ([4]; 25° C./60% RH, at start) was 0.09%, the Water content ([4]; 25° C./60% RH, at start) was 5.32% and the Content ([4]; 40° C./75% RH, 1 month) was 99.9%. For the same compound, the “Total amount of related substances” value ([4]; 40° C./75% RH, 1 month) was 0.07%, the Water content ([4]; 40° C./75% RH, 1 month) was 5.51% and the Content ([4]; 40° C./75% RH, 2 months) was 99.9%. For the same compound, the “Total amount of related substances” value ([4]; 40° C./75% RH, 2 months) was 0.04%, the Water content ([4]; 40° C./75% RH, 2 months) was 5.27% and the Content ([4]; 40° C./75% RH, 3 months) was 99.9%. For the same compound, the “Total amount of related substances” value ([4]; 40° C./75% RH, 3 months) was 0.06%, the Water content ([4]; 40° C./75% RH, 3 months) was 5.29% and the Content ([4]; 40° C./75% RH, at start) was 99.9%. For the same compound, the “Total amount of related substances” value ([4]; 40° C./75% RH, at start) was 0.09%, the Water content ([4]; 40° C./75% RH, at start) was 5.20% and the Content ([4]; 60° C., 2 weeks) was 99.9%. For the same compound, the “Total amount of related substances” value ([4]; 60° C., 2 weeks) was 0.02%, the Water content ([4]; 60° C., 2 weeks) was 5.20% and the Content [4, 6] was 99.9%. For the same compound, the “Total amount of related substances” value [4, 6] was 0.04%, the Water content [4, 6] was 5.08% and the Content ([4]; 60° C., at start) was 99.9%. The “Total amount of related substances” value ([4]; 60° C., at start) was 0.09%, the Water content ([4]; 60° C., at start) was 5.20% and the Content ([5]; 1 month) was 100.0%. For the same compound, the “Total amount of related substances” value ([5]; 1 month) was 0.0%, the Water content ([5]; 1 month) was 5.3% and the Content ([5]; 1 month, listed as Form III) was 100.0%. The “Total amount of related substances” value ([5]; 1 month, listed as Form III) was 0.0%, the Water content ([5]; 1 month, listed as Form III) was 5.3% and the Content ([5]; 3 months) was 99.9%. The “Total amount of related substances” value ([5]; 3 months) was 0.0%, the Water content ([5]; 3 months) was 5.5% and the Content ([5]; 3 months, listed as Form III) was 99.9%. The “Total amount of related substances” value ([5]; 3 months, listed as Form III) was 0.0%, the Water content ([5]; 3 months, listed as Form III) was 5.5% and the Content ([5]; at start) was 99.9%. The “Total amount of related substances” value ([5]; at start) was 0.0%, the Water content ([5]; at start) was 5.3% and the Content ([5]; at start, listed as Form III) was 99.9%. The “Total amount of related substances” value ([5]; at start, listed as Form III) was 0.0% and the Water content ([5]; at start, listed as Form III) was 5.3%.
